{"source": "patent US6469177B1", "about": "“Surface active N-Halamine compounds” (Auburn University, priority 1997, dated 2002)", "test_system": "S. aureus (ATCC 6538)", "assay": "Efficacy of N-halamine compounds against S. aureus in aqueous solution (Example 20)", "type": "cell-based, Staphylococcus aureus", "conditions": "pH 7.0; 22 ° C.; chlorine-demand-free water; 5 or 10 milligrams/liter total chlorine", "experimental": "The bacterial efficacies of the compounds against S. aureus (ATCC 6538) in chlorine-demand-free water were determine by using techniques employed previously in extensive detail by Williams et al., Appl. Environ. Microbial., 54:2583 (1987). Solutions containing 10^6 CFU final cell densities of bacteria were prepared and treated with the various disinfectant compounds described in examples 1-17 at either 5 or 10 milligrams/liter total chlorine concentration which was previously determined by titration using a stock solution with sodium thiosulfate. Aliquots were removed at several predetermined times, and the active halogen was quenched by sterile 0.02 normal sodium thiosulfate. Serial dilutions were made into sterile saline, and three 25 microliter aliquots of each dilution were applied to the dried surface of a Petri dish containing nutrient agar. After incubation at 37° C. for 48 hours, the three replicates for each dilution were counted and averaged. Control samples containing no disinfectant, or in some cases, unchlorinated precursor compounds, were handled in the same manner. […] Inactivation of the organism was considered to be at least 99.9999% when no colonies were detected in the thiosulfate-quenched aliquots."}
{"molecule": "C=CC(=O)OCC1(CC)COC(=O)N1Br", "note": "(stereo not shown) [Polymer 1a-Br, 3-bromo-4-(acryloxymethyl)-4-ethyl-2-oxazolidinone]", "values": [{"measurement": "Contact Time for 6-log Inactivation of S. aureus", "result": "<5", "unit": "min"}]}
